For one compound, IC50 results are on record in BindingDB's records for patent US20240002388 (Hutchison Medipharma, 2024).

This test addresses T1, Receptor-interacting serine/threonine-protein kinase 1 (Homo sapiens, UniProt Q13546).
T1 sequence (Q13546 whole entry): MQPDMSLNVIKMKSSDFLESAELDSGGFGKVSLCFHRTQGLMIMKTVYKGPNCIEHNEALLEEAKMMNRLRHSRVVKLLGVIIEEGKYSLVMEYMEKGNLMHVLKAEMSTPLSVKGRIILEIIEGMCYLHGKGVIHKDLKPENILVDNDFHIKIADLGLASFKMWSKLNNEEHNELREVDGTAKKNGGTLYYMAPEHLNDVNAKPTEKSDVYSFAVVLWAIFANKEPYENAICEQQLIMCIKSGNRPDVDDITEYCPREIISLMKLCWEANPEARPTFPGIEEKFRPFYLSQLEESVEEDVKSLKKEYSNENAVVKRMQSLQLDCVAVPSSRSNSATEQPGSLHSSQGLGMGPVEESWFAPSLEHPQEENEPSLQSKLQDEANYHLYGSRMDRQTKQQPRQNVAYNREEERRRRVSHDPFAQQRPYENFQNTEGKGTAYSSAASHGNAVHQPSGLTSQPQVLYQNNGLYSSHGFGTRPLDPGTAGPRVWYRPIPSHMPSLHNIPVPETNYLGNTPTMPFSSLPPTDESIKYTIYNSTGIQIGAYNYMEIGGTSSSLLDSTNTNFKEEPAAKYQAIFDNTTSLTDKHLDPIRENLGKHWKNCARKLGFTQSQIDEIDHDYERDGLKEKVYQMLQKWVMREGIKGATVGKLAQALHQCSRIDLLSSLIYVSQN
In words: RIPK1 Kinase Activity Assay. Here is the method:
ADP-Glo Kinase kit can be used to measure ADP level in kinase activity assay so as to distinguish the inhibitory effects of different compounds on RIPK1 kinase activity. The ADP-Glo assay was usually divided into three steps. Firstly, the kinase converted ATP to ADP and phosphorylated the substrate at the same time; secondly, ATP digestion reagent was added to degrade all ATP in the reaction system; finally, a detection reagent was added to reduce ADP to ATP, and energy from ATP was transferred to […] which thus emitting a chemical luminescence that can be detected. Assay procedure can refer to manufacture's technical manual.(2) Reagent Preparation:1.33× kinase buffer: 5× kinase buffer stock (250 mM of NaCl, 150 mM of MgCl2, 2.5 mg/ml BSA (bovine serum albumin), 0.1% CHAPS (3-[(3-cholamidopropyl)-dimethyl-ammonio]-1-propane sulfonate), and 5 mM of dithiothreitol) was diluted with water to 1.33× kinase buffer;RIPK1 enzyme solution: the kinase was dissolved in 1.33× kinase buffer to make 40 nM as the final working concentration;ATP solution: 10 mM ATP stock solution in water was dissolved in 1.33× kinase buffer to make 10 μM as the final working concentration;4× compound preparation: the compound was diluted in a 3-fold gradient, and finally 4% DMSO aqueous solution containing different concentrations of the compound was obtained. […]

`CC(C)n1cncc(-c2ccc(C3(NC(=O)c4nnc(Cc5ccccc5)[nH]4)CC3)cc2)c1=O` [US20240002388, Compound 14]: the 50% inhibitory concentration (IC50) is 18 nM.

In general, IC50 refers to the concentration at which inhibition is half-maximal.
